Reference: patent US11306102B2, “1,3-di-substituted ketene compound and application thereof” (BEBETTER MED INC., priority 2017, dated 2022)

Molecular target: T1, PPARα (Homo sapiens, UniProt Q07869)
T1 construct: expressed in transfected cells; host or cells: Hela cells
T1 sequence (Q07869 1-468): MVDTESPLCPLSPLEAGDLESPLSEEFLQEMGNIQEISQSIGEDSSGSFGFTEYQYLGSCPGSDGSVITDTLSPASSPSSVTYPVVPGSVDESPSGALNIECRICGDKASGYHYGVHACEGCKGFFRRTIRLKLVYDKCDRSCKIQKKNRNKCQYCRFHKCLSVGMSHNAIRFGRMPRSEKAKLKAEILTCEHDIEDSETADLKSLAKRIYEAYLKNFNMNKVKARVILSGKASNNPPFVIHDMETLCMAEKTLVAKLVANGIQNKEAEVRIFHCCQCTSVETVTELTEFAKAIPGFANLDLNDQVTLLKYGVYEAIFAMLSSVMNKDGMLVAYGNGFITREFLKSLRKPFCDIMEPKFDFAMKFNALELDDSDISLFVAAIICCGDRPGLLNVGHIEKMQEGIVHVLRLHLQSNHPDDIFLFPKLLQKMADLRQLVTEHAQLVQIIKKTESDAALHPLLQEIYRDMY
Test: Hela cell/luciferase reporter gene method, PPARα agonist activity
Type: cell-based
Settings: for EC50: Hela cells, pPPRE3-TK-Luciferase reporter, 24 hrs incubation, read-out: agonistic activity on PPAα (EC50); for ratio of PPARγ/PPARα activated (EC50 ratio): under the experimental conditions of the present disclosure
Description: This example measures the biological activity of a PPAR agonist using the Hela cell/luciferase reporter gene method.
The target plasmids PCMV PPARα (Ampicillin+), PCMV PPARγ (Ampicillin+), PCMV PPARδ (Ampicillin+), and pPPRE3-TK-Luciferase (Ampicillin+) were introduced into DH5a competent cells by heat shock treatment, respectively. After being incubated for 1 hour at 37° C. with shaking (180 rpm), the cells were inoculated on LB agar solid medium containing antibiotic Ampicillin, and invertedly cultured at 37° C. for 12-16 hours. Then the monoclonal colony cultured on the medium was taken and inoculated into LB liquid medium for expanded culture. The desired plasmid was extracted from the resulting bacterial solution with a Plasmid Midi Kit (Qiagen; #12143). The plasmid obtained by centrifugation was suspended in TE buffer, and the plasmid concentration was measured and the mixture was stored at −20° C. Hela cells in the exponential phase were seeded in 6-well plates (8-10^5 cells/well), and after 6-8 hours of culture, the cells were transfected using Lipofectamine® 3000 Transfection Reagent (Invitrogen; #L3000015). A plasmid containing a PPAR binding site (peroxisome proliferator response element, PPRE) and a firefly luciferase gene (pPPRE3-TK-Luciferase) and PPAR expression vector were co-transfected into a Hela cell with a total amount of plasmid DNA of 2.5 ug (the mass ratio of each PPAR expression vector is pPPRE:PPARα=6:1, pPPRE:PPARδ=8:1, and pPPRE:PPARγ=2:1) to construct a drug screening cell model for PPAR agonists. PPAR was binded to the ligand and then binded to the peroxisome proliferator response element (PPRE), thereby initiating downstream firefly luciferase expression and its expression intensity was directly proportional to the degree of PPAR activation. The cells after 24 hours transfection were prepared into a cell suspension with a cell concentration of […] by a complete culture solution, and seeded into a 96-well plate with 100 ul per well. After overnight culture, the medium was changed to a medium containing 1% FBS. 10 mM candidate compound stock (1000×) were 4-fold diluted in DMSO for 8 points, then supplemented with medium containing 1% FBS to a final concentration of 50 uM (5×) by addition of 25 μl of 5× compound diluent to each well in different concentration gradients and incubated under 37° C., 5% CO2 incubator for 24 hrs. The 96-well plate was taken out and 30 μl of Bright-Glo™ Luciferase Assay System (Promega #E2620) was added to each well. The Luciferase luminescence intensity was measured by a SynergyH1 full-function microplate detector. The obtained data was used to calculate EC50 using GraphPad Prism 5.0 software to determine the biological activity of the compound.
The agonistic activity of the compounds synthesized in Examples 1-41 on PPAR is represented by EC50 (see Table 1). EC50 refers to the drug concentration at which the compound has a 50% increase in the agonistic activity of the measured PPAR. The compound numbers in Table 1 correspond to the compound numbers in Examples 1-41.

SMILES	EC50 [nM]	increased activity for activation of PPARα compared with Elafibranor [fold]	ratio of PPARγ/PPARα activated (EC50 ratio)
CSc1ccc(C(=O)/C=C/c2cc(C)c(OC(C)(C)C(=O)O)c(C)c2)c2occc12 [Compound 5, (E)-2-(2,6-dimethyl-4-(3-(4-(methylthio)benzofuran-7-yl)-3-oxoprop-1-en-1-yl)phenoxy)-2-methylpropanoic acid]	24.4		
CCSc1ccc(C(=O)/C=C/c2cc(C)c(OC(C)(C)C(=O)O)c(C)c2)c2occc12 [Compound 6, (E)-2-(4-(3-(4-(ethylthio)benzofuran-7-yl)-3-oxoprop-1-en-1-yl)-2,6-dimethylphenoxy)-2-methylpropanoic acid]	9.6		
CSc1ccc(C(=O)/C=C/c2cc(C)c(OC(C)(C)C(=O)O)c(C)c2)c2ccoc12 [Compound 27, (E)-2-(2,6-dimethyl-4-(3-(7-(methylthio)benzofuran-4-yl)-3-oxoprop-1-en-1-yl)phenoxy)-2-methylpropanoic acid]	59.1		
Cc1cc(/C=C/C(=O)c2ccc3c(c2)CCS3)cc(C)c1OC(C)(C)C(=O)O [Compound 36, (E)-2-(4-(3-(2,3-dihydrobenzo[b]thiophen-5-yl)-3-oxoprop-1-en-1-yl)-2,6-dimethylphenoxy)-2-methylpropanoic acid]	75.1		
COc1ccc2cc(C(=O)/C=C/c3cc(C)c(OC(C)(C)C(=O)O)c(C)c3)oc2c1 [Compound 43, (E)-2-(4-(3-(6-methoxybenzofuran-2-yl)-3-oxoprop-1-en-1-yl)-2,6-dimethylphenoxy)-2-methylpropanoic acid]	39.8		
CSc1ccc2cc(C(=O)/C=C/c3cc(C)c(OC(C)(C)C(=O)O)c(C)c3)oc2c1 [Compound 51, (E)-2-(2,6-dimethyl-4-(3-(6-(methylthio)benzofuran-2-yl)-3-oxoprop-1-en-1-yl)phenoxy)-2-methylpropanoic acid]	4	7	8.83
CSc1cccc2oc(C(=O)/C=C/c3cc(C)c(OC(C)(C)C(=O)O)c(C)c3)cc12 [Compound 60, (E)-2-(2,6-dimethyl-4-(3-(4-(methylthio)benzofuran-2-yl)-3-oxoprop-1-en-1-yl)phenoxy)-2-methylpropanoic acid]	46.7		
CSc1ccc2c(C)c(C(=O)/C=C/c3cc(C)c(OC(C)(C)C(=O)O)c(C)c3)oc2c1 [Compound 62, (E)-2-(2,6-dimethyl-4-(3-(3-methyl-6-(methylthio)benzofuran-2-yl)-3-oxoprop-1-en-1-yl)phenoxy)-2-methylpropanoic acid]	16.6	1	7.98
CCc1c(C(=O)/C=C/c2cc(C)c(OC(C)(C)C(=O)O)c(C)c2)oc2cc(SC)ccc12 [Compound 63, (E)-2-(4-(3-(3-ethyl-6-(methylthio)benzofuran-2-yl)-3-oxoprop-1-en-1-yl)-2,6-dimethylphenoxy)-2-methylpropanoic acid]	19.2		
CCSc1ccc2c(C)c(C(=O)/C=C/c3cc(C)c(OC(C)(C)C(=O)O)c(C)c3)oc2c1 [Compound 74, (E)-2-(4-(3-(6-(ethylthio)-3-methylbenzofuran-2-yl)-3-oxoprop-1-en-1-yl)-2,6-dimethylphenoxy)-2-methylpropanoic acid]	13.9		
CSc1ccc2cc(C(=O)/C=C/c3cc(C)c(OC(C)(C)C(=O)O)c(C)c3)sc2c1 [Compound 81, (E)-2-(2,6-dimethyl-4-(3-(6-(methylthio)benzo[b]thiophen-2-yl)-3-oxoprop-1-en-1-yl)phenoxy)-2-methylpropanoic acid]	24.9		
CSc1ccc2cc(C(=O)/C=C/c3cc(Cl)c(OC(C)(C)C(=O)O)c(Cl)c3)oc2c1 [Compound 100, (E)-2-(2,6-dichloro-4-(3-(6-(methylthio)benzofuran-2-yl)-3-oxoprop-1-en-1-yl)phenoxy)-2-methylpropanoic acid]	2		237.55
CSc1ccc2c(C)c(C(=O)/C=C/c3cc(Cl)c(OC(C)(C)C(=O)O)c(Cl)c3)oc2c1 [Compound 103, (E)-2-(2,6-dichloro-4-(3-(3-methyl-6-(methylthio)benzofuran-2-yl)-3-oxoprop-1-en-1-yl)phenoxy)-2-methylpropanoic acid]	8.7		90.59
